Measured values: paper PMC6272399, “Anti-Proliferative Effect and Induction of Apoptosis in Androgen-Independent Human Prostate Cancer Cells by 1,5-Bis(2-hydroxyphenyl)-1,4-pentadiene-3-one” (Molecules, 2015)
“Also recorded” adds a separate entry of the source.

Tests used:
[1] = system: WI-38 (human lung fibroblast cells); assay: MTT cytotoxicity assay, normal WI-38; type: cell-based; details: normal cell line, 72 h treatment, mean ± SD, read-out: EC50 Values (µM) of Compounds on Cell Lines WI-38
Method: (§1) Cell viability was determined by the MTT [3-(4,5-dimethylthiazol-2-yl)-2,5-diphenyltetrazolium bromide] assay, as previously described by Mosmann with modifications. Briefly, cells were detached from the tissue culture flask and pelleted by centrifugation at 1000 rpm for 5 min. Then, the density of the viable cells was counted using a haemocytometer. Cells were then plated in a 96-well flat bottom micro-titer plate (Nunc) at a concentration of 10^4 cells/mL and incubated in a 5% CO2 incubator at 37 °C overnight to allow the cells to adhere to the bottom of the wells. After 24 h, the media was aspirated off and replaced with fresh media containing sample compounds (curcumin and curcumin analogues) of seven different concentrations ranging from 1.56 µM–100 µM and incubated at 37 °C, 5% CO2 for 72 h. Separately, the sample compounds were prepared in a stock solution of 50 mM in 100% dimethyl sulfoxide (DMSO, Molecular Biology Grade, Sigma-Aldrich, St. Louis, MO, USA) and diluted in the culture media to a working concentration of 200 µM. Curcumin, the parent compound which was used as the positive control was also prepared in the similar manner. A two-fold serial dilution was done for each sample in triplicates down the columns of the plate, yielding a final volume and concentration of 100 µL in 0.2% DMSO in each wells. Following treatment, 50 µL MTT solutions (0.5 mg/mL in PBS) was added to each well and incubated for another 4 h at 37 °C in a humidified 5% CO2 incubator. The supernatant was replaced with 100 µL of DMSO and the optical density (OD) was measured at 570/650 nm using a micro-plate ELISA reader (Bio-Rad Laboratories, Hercules, CA, USA). The percentage of viable cells was calculated based on the ratio of the corrected absorbance of sample-treated cells to the corrected absorbance of the control (0.2% DMSO-treated cells) multiplied by 100. The percentage of cell viability was determined as follows: % Cell viability= OD of treated cells /OD of control ×100
(§2) For each compound tested, the EC50 value was generated from the log dose-response curves for each cell line using the Graphpad Prism version 5.04 for Windows (Graphpad Software, La Jolla, CA, USA). […] Cytotoxicity of each tested compound is expressed as the EC50 value. Based on the EC50 values, selectivity index (SX) value was also determined. Selectivity index is a special parameter applied as a selectivity indicator of tested compounds towards cancer cells. The SX represents the ratio of EC50 value obtained in toxicity testing using the normal cell lines to the EC50 values of the toxicity testing of the cancer cells, and then multiplied by 100. All the compounds were assessed for their potential toxicity against normal, non-cancerous cells. […] The SX values were calculated using the following equation: SX = EC50 (normal cells)/EC50 (cancer cells) × 100

[2] = system: WRL 68 (human epithelial hepatocytes); assay: MTT cytotoxicity assay, normal WRL 68; type: cell-based; details: WRL68, normal cell line, 72 h treatment, mean ± SD, read-out: EC50 Values (µM) of Compounds on Cell Lines WRL-68
Method: as §1, §2

PC-3 cells = assay: MTT cytotoxicity (cell viability) assay, PC-3; type: cell-based, human
Method: as §1, §2

[3] = system: caspase-3 activity in DU 145 cells; assay: Caspase-3 colorimetric activity assay, DU 145; type: cell-based, human
Method: Caspase-3 activity was determined using the caspase-3 colorimetric assay kit (Sigma-Aldrich) according to manufacturer’s protocol. The assay is based on spectrophotometric detection of p-nitroanilide (pNA) a colored molecule, after its cleavage from the labeled substrate DEVD-pNA by the activity of caspase-3 enzyme. PC-3 and DU 145 cells were treated with MS17 at different concentrations (EC50, 2 × EC50, 3 × EC50) at various time points, 6, 12, 24, 48 and 72 h as appropriate. Following treatment, cells were washed with PBS and suspended with lysis buffer (50 mM HEPES, pH 7.4, 5 mM CHAPS, 5 mM DTT) for 30 min on ice at the concentration of 10^7 cells per 100 µL buffer. Cells were then spun for 30 min at 16,000× g, 4 °C. Protein lysate concentrations were measured based on the Bradford assay method using the Cayman Chemical protein determination kit (Cayman Chemical Company, Ann Arbor, MI, USA) based on the manufacturer’s protocol. Assay was performed on a 96-well micro-titer plate by adding equal amount of protein lysate (~100 µg) into wells containing the assay buffer (20 mM HEPES pH 7.4, 0.1% CHAPS, 5 mM DTT, 2 mM EDTA). Reaction was started by the addition of 10 µL of substrate Ac-DEVD-pNA (2 mM). The effect of Ac-DEVD-CHO, a caspase-3 inhibitor was also studied simultaneously on caspase-3 activity. Ten microliter of the inhibitor (200 µM) was added into the wells containing the protein lysate, assay buffer and the substrate. Caspase-3 activity was measured upon the release of pNA molecule, a pale yellow colored product using the micro-plate ELISA reader (Bio-Rad) at the wavelength of 405 nm. Relative caspase-3 activity was expressed as absorbance of enzyme activity compared with the control (untreated cells/DMSO only) based on the equation below: Relative caspase 3 activity= Absorbance of treated cells /Absorbance of control

SMILES: O=C(C=Cc1ccccc1O)C=Cc1ccccc1O [MS17, 1,5-bis(2-hydroxyphenyl)-1,4-pentadiene-3-one]
- EC50 [1]: 5.2 ± 1.2 µM
- EC50 [2]: 5.5 ± 0.5 µM
- EC50 (PC-3 cells; Homo sapiens, PC-3, MTT, 72 h treatment, mean ± SD, three experiments, read-out: EC50 Values (µM) of Compounds on Cell Lines PC-3): 4.4 ± 0.3 µM
- dose from which decrease in cell viability is significant (PC-3 cells; PC-3, MTT, vs untreated): 3.1 µM
- Selective index (SX) WI-38 vs PC-3 (PC-3 cells; SX = EC50 (WI-38)/EC50 (PC-3) × 100): 117.4
- Selective index (SX) WRL68 vs PC-3 (PC-3 cells; SX = EC50 (WRL68)/EC50 (PC-3) × 100): 124.9
- relative caspase-3 activity, differences between concentrations ([3]; DU 145, 6, 24, 48 and 72 h): no significant differences of caspase-3 activity
- relative caspase-3 activity (treated vs untreated) ([3]; DU 145, 12 h, significant at 8.4 and 12.6 µM compared to 4.2 µM): increased significantly; also recorded: increase in caspase-3 activity
